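Briefly, cells in 96-well plates were exposed to five compound concentrations for 48 h, and endpoints were estimated by linear interpolation. GI50 is the concentration that inhibits growth by half. Definition used: TGI = concentration required for complete inhibition of growth.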
Columns and labels:
Assay in all cases: inhibition of tumour cell growth, NCI panel, 48 h
BT-549 breast = test system: BT-549 breast
CAKI-1 renal = test system: CAKI-1 renal
DU-145 prostate = test system: DU-145 prostate
LOX IMVI melanoma = test system: LOX IMVI melanoma
M14 melanoma = test system: M14 melanoma
MDA-MB-231 breast = test system: MDA-MB-231 breast
NCI-H522 lung = test system: NCI-H522 lung
OVCAR-8 ovarian = test system: OVCAR-8 ovarian
SK-MEL-2 melanoma = test system: SK-MEL-2 melanoma
SK-MEL-28 melanoma = test system: SK-MEL-28 melanoma

Row | Structure (SMILES) | TGI (BT-549 breast) | TGI (CAKI-1 renal) | TGI (DU-145 prostate) | TGI (LOX IMVI melanoma) | TGI (M14 melanoma) | TGI (MDA-MB-231 breast) | TGI (NCI-H522 lung) | TGI (OVCAR-8 ovarian) | TGI (SK-MEL-2 melanoma) | TGI (SK-MEL-28 melanoma) | GI50 (BT-549 breast) | GI50 (CAKI-1 renal) | GI50 (DU-145 prostate) | GI50 (LOX IMVI melanoma) | GI50 (M14 melanoma) | GI50 (MDA-MB-231 breast) | GI50 (NCI-H522 lung) | GI50 (OVCAR-8 ovarian) | GI50 (SK-MEL-2 melanoma) | GI50 (SK-MEL-28 melanoma)
1 | Cc1occc1C(=S)Nc1ccc(Cl)c(COC(C)(C)C)c1 | 33.6 µM | 38.9 µM | 46.9 µM | 34 µM | 43.5 µM | 32 µM | 28.6 µM | 31.5 µM | 33.1 µM | 30.1 µM |  |  |  |  |  |  |  |  |  | 
2 | CC/C=C\C=C/C(=O)N/C=C/CC1Cc2cccc(O)c2C(=O)O1 (centres undefined) | 87.3 µM | 36.3 µM | 52 µM | 26.5 µM | 64.2 µM | 39 µM | 55.2 µM | > 100 µM | > 100 µM | 58.7 µM | 25.8 µM | 17.3 µM | 17.3 µM | 13.3 µM | 22.7 µM | 17 µM | 19.5 µM | 30 µM | 22.9 µM | 17.4 µM
3 | CN1CCN(CCc2cccc(C(=O)c3cnn(-c4ccc(F)cc4)c3N)c2)CC1 | > 25 µM | > 25 µM | > 25 µM | > 25 µM | > 25 µM | > 25 µM | > 25 µM | > 25 µM | > 25 µM | > 25 µM | > 25 µM | > 25 µM | > 25 µM | > 25 µM | > 25 µM | > 25 µM | > 25 µM | > 25 µM | > 25 µM | > 25 µM
4 | COc1cc(C2c3cc4c(cc3OC(N3CCCC3)C2C)OCO4)cc(OC)c1OC (centres undefined) | 11.5 µM | 12 µM | 11.3 µM | 25.9 µM | 12.8 µM | 9.32 µM | 1.55 µM | 9.82 µM | 7.56 µM | > 100 µM |  |  |  |  |  |  |  |  |  | 
5 | COc1ccc(C(=O)/C=C/c2ccc(/C=C/c3cc(OC)c(OC)c(OC)c3)cc2)cc1 | 16.8 µM | > 100 µM | > 100 µM | 60.9 µM | > 100 µM | > 100 µM | 30.7 µM | 61.1 µM | > 100 µM | > 100 µM | 3.36 µM | 14.6 µM | 10.2 µM | 3.76 µM | 9.61 µM | 10.2 µM | 3.3 µM | 3.76 µM | 18.9 µM | 16.9 µM
6 | CC1SC(c2c(Cl)cccc2Cl)N(NC(=O)c2[nH]c3ccc(F)cc3c2-c2ccccc2)C1=O (centres undefined) | 28.5 µM | 4.85 µM | 4.36 µM | 3.35 µM | 30.2 µM | 4.28 µM | 5.83 µM | 3.39 µM | 15.6 µM | 17.2 µM | 5.04 µM | 1.83 µM | 1.92 µM | 1.71 µM | 3.96 µM | 2.13 µM | 1.87 µM | 1.7 µM | 3.29 µM | 3.57 µM
7 | CC1(C)SC2C(NC(=O)C(N)c3ccccc3)C(=O)N2C1C(=O)O (centres undefined) | > 100 µM | > 100 µM | > 100 µM | > 100 µM | > 100 µM | > 100 µM | > 100 µM | > 100 µM | > 100 µM | > 100 µM |  |  |  |  |  |  |  |  |  | 
8 | CCCN=Cc1cc(Cc2ccc(O)c(C=NCCC)c2)ccc1O | > 100 µM | 73.8 µM | 31.1 µM | 13.4 µM | 7.35 µM | 33.5 µM | 45.1 µM | 20.4 µM | 9.59 µM |  |  |  |  |  |  |  |  |  |  | 
